Converted amounts (≈) assume the structure as drawn.
Key:
[1] = system: ΔmdrMTAC mutant; assay: Growth curves in BHI with added cyclic dinucleotide, ΔmdrMTAC mutant; type: cell-based, Listeria monocytogenes; conditions: for effect on growth in the absence of vancomycin stress: BHI, dinucleotide 3 μg ml^−1; for effect on growth in the presence of vancomycin: vancomycin 1 μg ml^−1, dinucleotide 3 μg ml^−1
Method: (§1) Overnight cultures were adjusted to 0.03 O.D.600 in 20 ml fresh BHI broth, supplemented when indicated with 0.25 mM IPTG, 0.08 μg ml^−1 penicillin G, 1 μg ml^−1 vancomycin or 3 μg ml^−1 c-di-AMP. For bacterial RNA extraction, bacteria were grown at 37° C. to O.D.600 0.4, then supplemented with 3 μg ml^−1 lincomycin, 50 μM rhodamine 6 G (R6G), 1 μg ml^−1 vancomycin, 0.08 μg ml^−1 penicillin G for 2 h; or centrifuged and resuspended in minimal media pH 5 (lactic acid), minimal media with 10 mM H2O2, or defined minimal media pH 5 with 10 mM H2O2 for 30 mM For microscopy bacteria were grown similarly and supplemented with 1 μg ml^−1 vancomycin for 2 h. Growth curves in the presence of drugs were performed in a Synergy HT BIOTEK® plate reader at 37° C. with continuous shaking following O.D.600 every 15 min for 24 h. Of note, bacterial growth in the plate reader is different than in flasks in respect to the O.D. levels that are measured. In each experiment, growth conditions are indicated.

[2] = system: WT L. monocytogenes; assay: Growth curves in BHI with added cyclic dinucleotide, WT bacteria; type: cell-based, Listeria monocytogenes; conditions: for effect on growth in the absence of vancomycin stress: BHI, dinucleotide 3 μg ml^−1; for effect on growth in the presence of vancomycin: vancomycin 1 μg ml^−1, dinucleotide 3 μg ml^−1
Method: as §1

[3] = system: WT bacteria; assay: Minimal inhibitory concentration for WT bacteria; type: cell-based; conditions: Listeria monocytogenes
Method: as §1

[4] = system: ΔmdrMTAC; assay: Minimal inhibitory concentration for ΔmdrMTAC; type: cell-based; conditions: Listeria monocytogenes, read-out: minimal inhibitory concentration
[5] = system: WT bacteria; assay: TEM sections, cell wall thickness under vancomycin treatment, WT bacteria; type: cell-based, Listeria monocytogenes; conditions: vancomycin 1 μg ml^−1 for 2 h
Method: as §1
Bacteria were grown as described above with and without vancomycin treatment. For negative staining, PBS washed bacteria were adsorbed on formvar/carbon coated grids and stained with 2% aqueous uranyl acetate. For TEM sections, a bacterial pellet from 20 ml of culture was fixed in 2.5% glutaraldehyde in PBS at 4° C. for 20 h, washed three times with PBS and post-fixed in 1% OsO4 in PBS at 4° C. for 2 h. […]

[6] = system: dacA gene transcription in WT bacteria; assay: RT-qPCR of dacA transcription upon vancomycin treatment, WT bacteria; type: cell-based, Listeria monocytogenes
Method: as §1, with “[…];” for “1 μg ml^−1 vancomycin, 0.08 μg ml^−1 penicillin G for 2 h;”
RNA was purified from bacteria in mid-log growth in BHI or from infected cells using standard phenol-chloroform extraction methods. RNA from intracellularly grown bacteria was amplified using MESSAGEAMP™ II (AMBION™) bacterial RNA amplification kit according to the manufacturer's instructions. RNA of infected macrophages was extracted using TRIZOL® reagent according to standard protocols. […]

Row | SMILES | effect on growth in the absence of vancomycin stress [1] | effect on growth in the presence of vancomycin [1] | effect on growth in the absence of vancomycin stress [2] | effect on growth in the presence of vancomycin [2] | MIC [3] [µg/mL] | MIC [4] [µg/mL] | cell wall thickness, average [5] [nm] | dacA transcription level in comparison to non-treated bacteria ([6]; sub-lethal vancomycin 1 μg ml^−1) [fold] | dacA transcription level in comparison to non-treated bacteria ([6]; vancomycin 20 μg ml^−1 for 10 minutes) [fold]
1 | Nc1nc2c(ncn2[C@@H]2O[C@@H]3COP(=O)(O)O[C@H]4[C@@H](O)[C@H](n5cnc6c(=O)[nH]c(N)nc65)O[C@@H]4COP(=O)(O)O[C@H]3[C@H]2O)c(=O)[nH]1 [c-di-GMP] | no effect | no effect | no effect | no effect |  |  |  |  | 
2 | CC1(C)S[C@@H]2[C@H](NC(=O)Cc3ccccc3)C(=O)N2[C@H]1C(=O)O [penicillin, penicillin G] |  |  |  |  | 0.15 | 0.08 (≈ 0.239 µM) |  |  | 
3 | CN[C@H](CC(C)C)C(=O)N[C@H]1C(=O)N[C@@H](CC(N)=O)C(=O)N[C@H]2C(=O)N[C@H]3C(=O)N[C@H](C(=O)N[C@H](C(=O)O)c4cc(O)cc(O)c4-c4cc3ccc4O)[C@H](O)c3ccc(c(Cl)c3)Oc3cc2cc(c3O[C@@H]2O[C@H](CO)[C@@H](O)[C@H](O)[C@H]2O[C@H]2C[C@](C)(N)[C@H](O)[C@H](C)O2)Oc2ccc(cc2Cl)[C@H]1O [vancomycin] |  |  |  |  | 2 | 1.5 (≈ 1.04 µM) | 35 | 1.5 | 4.5
4 | Nc1ncnc2c1ncn2[C@@H]1O[C@@H]2COP(=O)(O)O[C@H]3[C@@H](O)[C@H](n4cnc5c(N)ncnc54)O[C@@H]3COP(=O)(O)O[C@H]2[C@H]1O [c-di-AMP, cyclic-di-adenosine monophosphate] | no effect | shorter lag phase | no effect | shorter lag phase |  |  |  |  | 

From patent US9976149B2, “Modified listeria bacteria and uses thereof” (priority 2014, dated 2018)
